System: female Sprague-Dawley mature and young adult rats
Test: Ex vivo peripheral quantitative computed tomography (pQCT) of right femur (metaphysis, diaphysis, length)
Type: in vivo, rat
Conditions: Young Adults; for pQCT femur (diaphysis) CSMI / pQCT femur (diaphysis) Cortical Area / pQCT femur (diaphysis) Cortical BMC / pQCT femur (diaphysis) Cortical BMD / pQCT femur (diaphysis) Cortical Thickness / pQCT femur (diaphysis) Endosteal Circumference / pQCT femur (diaphysis) Periosteal Circumference / pQCT femur (diaphysis) Total Area / pQCT femur (diaphysis) Total BMC / pQCT femur (diaphysis) Total BMD / pQCT femur Length / pQCT femur metaphysis C/SC (Cortical/Subcortical) BMC / pQCT femur metaphysis C/SC (Cortical/Subcortical) BMD / pQCT femur metaphysis Total Area / pQCT femur metaphysis Total BMC / pQCT femur metaphysis Total BMD / pQCT femur metaphysis Trabecular BMC / pQCT femur metaphysis Trabecular BMD: mean
Protocol: The following were evaluated: clinical signs (at least weekly), body weight (weekly), food consumption (weekly), hormones (Days 13 and 27), serum and urinary biochemical markers of bone turnover (Days 13 and 27), serum chemistry (at necropsy), bone densitometry by dual energy X-ray absorptiometry (DXA) and peripheral quantitative computed tomography (pQCT) (Week 2 and 4, as well as ex vivo), macroscopic observations at necropsy, organ weights, histopathology, biomechanical strength testing and femoral length measurements.
3.2 Ex Vivo Peripheral Quantitative Computed Tomography (pQCT)
Peripheral QCT scans were performed ex vivo using an XCT Research SA or SA+ bone scanner with software version 5.50D. Scans were obtained for the right femur, L3 and L4 lumbar vertebra for all animals euthanized at the end of the treatment period as well as two found dead animals. These two animals were scanned twice due to technical oversight, however only the first scans obtained were reported and the second scans were kept with the study file, this had no impact on the study as both scans were considered equivalent.
For the femurs, the scanned site was at the expected 3-point bending fracture site (diaphysis). This site was analyzed using Cortmode 2 for cortical bone measurements only (Table 5). An additional slice was obtained in the metaphysis. The metaphysis scan was not performed for the femur of three animals due to condyles detachment from the femur during trimming.
The femoral length was measured as part of the ex vivo pQCT scanning procedures and was reported for the right femur of all animals with the exception of 3 animas due to damaged femoral condyles.
All analyses were performed using the LOOP option of the analysis software. All other data generated as a result of the LOOP option were retained with the raw data but not reported. The most appropriate analysis mode for the femur and the lumbar vertebrae was used and documented in the raw data and the analysis details are presented in Table 6. All scan analysis data was retained and re-analyses documented.

COc1ccc(Cc2c(OC3OC(CO)C(F)C(O)C3O)n[nH]c2C(F)(F)F)cc1 (stereo not drawn) [Example 5 of formula II]
pQCT femur (diaphysis) CSMI, percent difference from Vehicle Control (10 mg/kg/day): −1.3% | pQCT femur (diaphysis) Cortical Area, percent difference from Vehicle Control (10 mg/kg/day): −0.4% | pQCT femur (diaphysis) Cortical BMC, percent difference from Vehicle Control (10 mg/kg/day): −0.8% | pQCT femur (diaphysis) Cortical BMD, percent difference from Vehicle Control (10 mg/kg/day): −0.4% | pQCT femur (diaphysis) Cortical Thickness, percent difference from Vehicle Control (10 mg/kg/day): 0.15% | pQCT femur (diaphysis) Endosteal Circumference, percent difference from Vehicle Control (10 mg/kg/day): −0.7% | pQCT femur (diaphysis) Periosteal Circumference, percent difference from Vehicle Control (10 mg/kg/day): −1.2% | pQCT femur (diaphysis) Total Area, percent difference from Vehicle Control (10 mg/kg/day): −0.9% | pQCT femur (diaphysis) Total BMC, percent difference from Vehicle Control (10 mg/kg/day): 0.2% | pQCT femur (diaphysis) Total BMD, percent difference from Vehicle Control (10 mg/kg/day): 1.1% | pQCT femur Length, percent difference from Vehicle Control (10 mg/kg/day): −3.8% | pQCT femur metaphysis C/SC BMC, percent difference from Vehicle Control (10 mg/kg/day): 10.7% | pQCT femur metaphysis C/SC BMD, percent difference from Vehicle Control (10 mg/kg/day): 6.8% | pQCT femur metaphysis Total Area, percent difference from Vehicle Control (10 mg/kg/day): 3.7% | pQCT femur metaphysis Total BMC, percent difference from Vehicle Control (10 mg/kg/day): 16.7% | pQCT femur metaphysis Total BMD, percent difference from Vehicle Control (10 mg/kg/day): 12.6% | pQCT femur metaphysis Trabecular BMC, percent difference from Vehicle Control (10 mg/kg/day): 41.4% | pQCT femur metaphysis Trabecular BMD, percent difference from Vehicle Control (10 mg/kg/day): 36.4% | pQCT femur (diaphysis) CSMI (10 mg/kg/day): 3.8 mm^4 | pQCT femur (diaphysis) Cortical Area (10 mg/kg/day): 4.7 mm^2 | pQCT femur (diaphysis) Cortical BMC (10 mg/kg/day): 5.6 mg/mm | pQCT femur (diaphysis) Cortical BMD (10 mg/kg/day): 1182.8 mg/cm^3 | pQCT femur (diaphysis) Cortical Thickness (10 mg/kg/day): 0.54 mm | pQCT femur (diaphysis) Endosteal Circumference (10 mg/kg/day): 6.9 mm | pQCT femur (diaphysis) Periosteal Circumference (10 mg/kg/day): 10.2 mm | pQCT femur (diaphysis) Total Area (10 mg/kg/day): 8.6 mm^2 | pQCT femur (diaphysis) Total BMC (10 mg/kg/day): 6.2 mg/mm | pQCT femur (diaphysis) Total BMD (10 mg/kg/day): 721.8 mg/cm^3 | pQCT femur Length (10 mg/kg/day): 31.9 mm | pQCT femur metaphysis C/SC (Cortical/Subcortical) BMC (10 mg/kg/day): 7.9 mg/mm | pQCT femur metaphysis C/SC (Cortical/Subcortical) BMD (10 mg/kg/day): 877.1 mg/cm^3 | pQCT femur metaphysis Total Area (10 mg/kg/day): 15.0 mm^2 | pQCT femur metaphysis Total BMC (10 mg/kg/day): 10.3 mg/mm | pQCT femur metaphysis Total BMD (10 mg/kg/day): 690.2 mg/cm^3 | pQCT femur metaphysis Trabecular BMC (10 mg/kg/day): 2.5 mg/mm | pQCT femur metaphysis Trabecular BMD (10 mg/kg/day): 410.7 mg/cm^3 | pQCT femur (diaphysis) CSMI, percent difference from Vehicle Control (50 mg/kg/day): 0.6% | pQCT femur (diaphysis) Cortical Area, percent difference from Vehicle Control (50 mg/kg/day): −0.6% | pQCT femur (diaphysis) Cortical BMC, percent difference from Vehicle Control (50 mg/kg/day): −0.7% | pQCT femur (diaphysis) Cortical BMD, percent difference from Vehicle Control (50 mg/kg/day): −0.1% | pQCT femur (diaphysis) Cortical Thickness, percent difference from Vehicle Control (50 mg/kg/day): −0.01% | pQCT femur (diaphysis) Endosteal Circumference, percent difference from Vehicle Control (50 mg/kg/day): −0.7% | pQCT femur (diaphysis) Periosteal Circumference, percent difference from Vehicle Control (50 mg/kg/day): −0.3% | pQCT femur (diaphysis) Total Area, percent difference from Vehicle Control (50 mg/kg/day): −0.7% | pQCT femur (diaphysis) Total BMC, percent difference from Vehicle Control (50 mg/kg/day): 0.0% | pQCT femur (diaphysis) Total BMD, percent difference from Vehicle Control (50 mg/kg/day): 0.9% | pQCT femur Length, percent difference from Vehicle Control (50 mg/kg/day): −4.9% | pQCT femur metaphysis C/SC BMC, percent difference from Vehicle Control (50 mg/kg/day): 18.4% | pQCT femur metaphysis C/SC BMD, percent difference from Vehicle Control (50 mg/kg/day): 13.6% | pQCT femur metaphysis Total Area, percent difference from Vehicle Control (50 mg/kg/day): 4.3% | pQCT femur metaphysis Total BMC, percent difference from Vehicle Control (50 mg/kg/day): 33.0% | pQCT femur metaphysis Total BMD, percent difference from Vehicle Control (50 mg/kg/day): 27.6% | pQCT femur metaphysis Trabecular BMC, percent difference from Vehicle Control (50 mg/kg/day): 92.0% | pQCT femur metaphysis Trabecular BMD, percent difference from Vehicle Control (50 mg/kg/day): 84.7% | pQCT femur (diaphysis) CSMI (50 mg/kg/day): 3.9 mm^4 | pQCT femur (diaphysis) Cortical Area (50 mg/kg/day): 4.7 mm^2 | pQCT femur (diaphysis) Cortical BMC (50 mg/kg/day): 5.6 mg/mm | pQCT femur (diaphysis) Cortical BMD (50 mg/kg/day): 1186.1 mg/cm^3 | pQCT femur (diaphysis) Cortical Thickness (50 mg/kg/day): 0.54 mm | pQCT femur (diaphysis) Endosteal Circumference (50 mg/kg/day): 7.0 mm | pQCT femur (diaphysis) Periosteal Circumference (50 mg/kg/day): 10.2 mm | pQCT femur (diaphysis) Total Area (50 mg/kg/day): 8.6 mm^2 | pQCT femur (diaphysis) Total BMC (50 mg/kg/day): 6.2 mg/mm | pQCT femur (diaphysis) Total BMD (50 mg/kg/day): 720.6 mg/cm^3 | pQCT femur Length (50 mg/kg/day): 31.6 mm | pQCT femur metaphysis C/SC (Cortical/Subcortical) BMC (50 mg/kg/day): 8.4 mg/mm | pQCT femur metaphysis C/SC (Cortical/Subcortical) BMD (50 mg/kg/day): 932.6 mg/cm^3 | pQCT femur metaphysis Total Area (50 mg/kg/day): 15.1 mm^2 | pQCT femur metaphysis Total BMC (50 mg/kg/day): 11.8 mg/mm | pQCT femur metaphysis Total BMD (50 mg/kg/day): 782.0 mg/cm^3 | pQCT femur metaphysis Trabecular BMC (50 mg/kg/day): 3.4 mg/mm | pQCT femur metaphysis Trabecular BMD (50 mg/kg/day): 556.0 mg/cm^3

— patent publication US20120270819A1, “USE OF COMPOUNDS WITH SGLT-1/SGLT-2 INHIBITOR ACTIVITY FOR PRODUCING MEDICAMENTS FOR TREATMENT OF BONE DISEASE” (SANOFI, priority 2009, published 2012)
